Data reported in patent publication US20250332139A1, “PS[…] AND THEIR USE FOR TREATING […] AND NE[…] DISORDERS” (Transcend Therapeutics, Inc., priority 2021, published 2025).
Read-outs that look alike come from different tables or passages of the source.

What was measured:
Sprague Dawley rats [1] = test: Forced Swim Test (FST); type: in vivo, rat
Text: The Forced Swim Test (FST) is a classic, and the most used preclinical behavioral assay to screen compounds with antidepressant-like activity and has high predictive and face validity (Porsolt et al. (1977) Nature 266:730; Borsini and Meli (1988) Psychopharmacology 94:147). The premise of the FST is that when rats are placed into a cylinder filled with water, they will initially try to escape, but over time will become immobile. This increased immobility reflects behavioral despair, modeling a depressive-like state.
Forced Swim Test (FST): In the FST trial, rats were placed in a circular plexiglass container filled with water, with no means of escape. Water temperature was maintained at 22-25° C. and changed for every animal. After an acclimation period, rats were timed for inactivity (failure to struggle), activity, swim time and climbing time. Day 1 consisted of a 15 min acclimation trial, and Day 2 (24 h later) consisted of the 5 min test. A time sampling procedure was employed where animals were observed every 5 sec and scored for immobility, swimming, or climbing. Fluoxetine (10 mg/kg, IP, Sigma Aldrich) or 0.9% sterile saline vehicle (vehicle 3X group) were administered 23.5, 5, and 1 h before testing in the FST. […] The experimenter was blinded to treatment.
Forced Swim Test: In the FST trial, rats were placed in a circular plexiglass container filled with water, with no means of escape. Water temperature was maintained at 22-25° C. and changed for every animal. After an acclimation period, rats were timed for inactivity (failure to struggle), activity, swim time and climbing time. Day 1 consisted of a 15 min acclimation trial, and Day 2 (24 h later) consisted of the 5 min test. A time sampling procedure was employed where animals were observed every 5 sec and scored for immobility, swimming, or climbing. Fluoxetine (10 mg/kg, IP, Sigma Aldrich) or 0.9% sterile saline vehicle (vehicle 3X group) were administered 23.5, 5, and 1 h before testing in the FST. 2C-B (2.5, 10, or 20 mg/kg, IP, Cayman Chemical) or 0.9% saline vehicle (vehicle 1X group) were administered 30 min prior to FST testing. The experimenter was blinded to treatment.
Drug Treatment: Fluoxetine (10 mg/kg, IP, Sigma Aldrich) or 0.9% sterile saline vehicle were administered 23.5, 5, and 1 h before testing in the FST. […] Control animals received fluoxetine alone, methylone alone, or saline vehicle.
Forced Swim Test: In the FST trial, rats were placed in a circular plexiglass container filled with water, with no means of escape. Water temperature was maintained at 22-25° C. and changed for every animal. After an acclimation period, rats were timed for inactivity (failure to struggle), activity, swim time and climbing time. The experimenter and scorer were blind to treatment group. Day 1 consisted of a 15 min acclimation trial, and Day 2 (24 h later) consisted of the 5 min test. A time sampling procedure was employed where animals were observed every 5 sec and scored for immobility, swimming, or climbing.
The FST was performed and scored by an experimenter blind to treatment group according to standard protocols and based on a “modified FST” procedure (Slattery and Cryan (2012) Nat Protoc, 7:1009). Briefly, rats were placed in a circular plexiglass container (29.2 cm diameter, 49.5 cm height) filled with water to a depth of 30 cm so rats could not support themselves by touching the bottom of the tank. Water was maintained at 22-25° C. and was changed for every animal. Day 1 (Training) consisted of a 15 min acclimation trial, and Day 2 (Testing, 24 h later) consisted of the 5 min test. A time sampling procedure was employed where animals were observed every 5 seconds for the duration of the test session (60 counts or 5 minutes) and scored for immobility (defined as the failure to struggle), swimming (defined as a circular movement around the tank), or climbing (defined as an upwards escape behavior). […]

[2] = system: serotonergic terminals in the cortex and hippocampus; details: (±)-MBDB.HCl 25 mg/kg IP every 12 hours for 4 days, 2 weeks post-treatment; cited from earlier work
C57BL/6J mice = test: Fear extinction paradigm (PTSD mouse model); type: in vivo; details: MBDB 5 mg/kg IP, day 2
Text: Effective PTSD treatments facilitate the disassociation between a traumatic memory and the patient's fear response, making cues for the traumatic memory evoke less of a fear response. This is modeled in the mouse fear extinction paradigm (see FIG. 9A) which takes place over 3 days. On day 1 (fear conditioning), mice are trained to acquire a “traumatic memory,” namely associating the conditioned stimulus (CS, tone) to the unconditioned stimulus (US, foot shock). On day 2 (extinction training), they are trained to forget the traumatic memory association by presenting the CS 6 times (with no US) in a novel environment. On day 3 (extinction recall), the mice are “asked” if that tone (CS) still elicits a fearful response, as measured by the time spent freezing when the tone is presented. Less time freezing means better extinction recall. Drugs that improve extinction recall reduce freezing time on day 3, and, therefore, show potential as a PTSD treatment.
Methods: Cued fear conditioning was performed in C57BL/6J mice. On day 1, animals were placed in the chambers and presented with a training session (CS-US pairing). The training consisted of a 2-minute habituation followed by a 30-second, 80 dB tone; during the last 2 seconds of the tone animals received a 1 mA foot shock. This US-CS procedure occurred once for a total of one paired presentation of tone and shock. Freezing behavior (immobility) was recorded in 5-10-see intervals during the session. Percent baseline freezing behavior was determined in the 2-minute habituation period. On day 3, animals were placed in context B, in which tactile and odor cues differed from context A. Following a 2 minute acclimation period animals received 4×30 sec presentations of the CS (tone) in the absence of the US (footshock), with a 45 sec interval between presentations. Freezing was recorded in 5-10-see intervals to measure baseline freezing response to the altered context, and freezing response to each tone cue presentation. […] On day 4 (Post-Extinction Testing in Drug-Free State), animals were placed in Context B. Following a 2 min acclimation period, animals received 4×30 sec extinction tone duration presentations of the CS (tone) in the absence of the US (footshock), with a 45 sec interval between presentations. Freezing was recorded in 5-10-see intervals to measure baseline freezing response to the altered context, and freezing response to each tone cue presentation.

experienced drug users = details: cited from earlier work
Sprague Dawley rats [3] = details: previous literature reports (Hibicke 2020; Yang 2013; Tizabi 2012); cited from earlier work
[4] = biological target: T1, Human serotonin 5HT2B receptor (Homo sapiens, UniProt P41595); test: 5HT2B competitive radioligand binding; details: ratio of Ki values
T1 construct: host or cells: receptor-expressing membranes
Description: Human serotonin 5HT2B receptor membrane preparations were divided into aliquots. On the day of the assay, membranes were diluted at 1:200 in incubation buffer. […] To each well was added 150 μL membrane preparation, 50 μL test compound, non-specific compound, or buffer alone, as well as 50 μL radioligand. The plate was incubated at 35° C. for 90 minutes with gentle agitation. […] For each concentration of drug, non-specific binding was subtracted from total binding to give specific binding. […] Ki was subsequently calculated using the ChengPrusoff equation.

C57Bl/6 mice = test: Cisplatin CIPN model, von Frey test; type: in vivo, mouse
Description: Cisplatin, a platinum-based chemotherapy agent has been used to reduce pain thresholds in a model of CIPN. Effects of acute (single higher dose) or sub-chronic (7 days repeated lower dose) 2C-B on pain thresholds were investigated in cisplatin-treated animals compared with vehicle or cisplatin-treated controls.
Methods: Male C57Bl/6 mice aged 12-16 weeks were used. Cisplatin (2.5 mg/kg) or vehicle was administered on days 1-5 and 11-15.
Vehicle, sub-chronic 2C-B (5 mg/kg once daily days 17-23) or acute 2C-B (20 mg/kg once on day 17) was then administered IP (N=16-18/group). VonFrey testing took place on day 17 (30 min post-dose) and days 21 and 24 (pre-dose) to monitor the effects of 2C-B in cisplatin treated animals, compared with animals receiving cisplatin+vehicle or vehicle+vehicle.
For von Frey measurements, animals were placed into wire bottom cubicles with opaque Plexiglas walls, allowing access to the underside of their paws. Animals were habituated to this environment for at least 30 minutes before the start of the von Frey filament application. Static allodynia was measured using Semmes-Weinstein von Frey filaments (Stoelting, Wood Dale, IL). Mechanical allodynia was tested by touching the plantar surface of the animals' right and left hind paws with von Frey filaments which deliver a calibrated amount of force (0.07, 0.16, 0.4, 0.6. 1.0, 2.0, 4.0, 6.0 g). […]

T1 sequence (P41595 whole entry): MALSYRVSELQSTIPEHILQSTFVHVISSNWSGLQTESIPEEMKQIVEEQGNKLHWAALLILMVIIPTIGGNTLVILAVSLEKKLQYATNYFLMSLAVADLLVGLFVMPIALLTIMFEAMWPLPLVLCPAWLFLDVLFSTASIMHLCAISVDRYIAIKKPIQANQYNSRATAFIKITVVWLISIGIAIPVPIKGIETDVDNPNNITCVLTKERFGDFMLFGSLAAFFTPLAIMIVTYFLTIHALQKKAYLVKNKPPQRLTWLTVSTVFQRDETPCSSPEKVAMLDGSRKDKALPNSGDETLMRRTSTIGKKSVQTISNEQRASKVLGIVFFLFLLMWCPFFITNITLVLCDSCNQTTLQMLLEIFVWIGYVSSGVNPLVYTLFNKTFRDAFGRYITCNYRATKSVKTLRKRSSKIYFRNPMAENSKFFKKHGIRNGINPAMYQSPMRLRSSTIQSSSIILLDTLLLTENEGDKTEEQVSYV

CNCCC(Oc1ccc(C(F)(F)F)cc1)c1ccccc1 (centres unmarked) [fluoxetine, reference compound]
swimming behavior (Sprague Dawley rats [1]; Example 8, fluoxetine 10 mg/kg IP x3): significantly increased swimming behavior

CCC(Cc1ccc2c(c1)OCO2)NC (centres unmarked) [MBDB, N-methyl-1-(1,3-benzodioxol-5-yl)-2-aminobutane]
serotonergic terminals destroyed in the cortex and hippocampus [2]: 55-60%
extinction acquisition, first trial of extinction training (C57BL/6J mice): improved extinction acquisition
locomotor activity (C57BL/6J mice): small, but significant increase in locomotor activity
immobility (Sprague Dawley rats [1]; MBDB 5-30 mg/kg IP, 30 min before test): significantly reduced immobility
adverse effects (experienced drug users; self-administered MBDB, 100 to 300 mg): no serious adverse effects

CCN(CC)C(=O)[C@@H]1C=C2c3cccc4[nH]cc(c34)C[C@H]2N(C)C1 [LSD, lysergic acid-N,N-diethylamide]
reduction in immobility (Sprague Dawley rats [3]): 38%

CC(N)Cc1ccc2c(c1)OCO2 (centres unmarked) [MDA]
times greater affinity for the 5HT2B receptor compared with methylone [4]: 37 times

COc1cc(CCN)c(OC)cc1Br [2C-B, 4-Bromo-2,5-dimethoxyphenethylamine]
climbing (Sprague Dawley rats [1]; 2C-B high-dose group (20 mg/kg IP)): significantly decreased
swimming (Sprague Dawley rats [1]; 2C-B single dose IP 30 min before test): significant increase in swimming
effect of repeated doses (C57Bl/6 mice; 5 mg/kg 2C-B once daily days 17-23): sustained beneficial effect
pain thresholds in cisplatin-treated animals (C57Bl/6 mice; single dose 5 or 20 mg/kg IP, within 30 min, day 17): significantly increased
adverse effects (experienced drug users; self-administered 2C-B, 10 to 20 mg): no serious adverse effects

CN(C)CCc1c[nH]c2cccc(OP(=O)(O)O)c12 [psilocybin]
reduction in immobility (Sprague Dawley rats [3]): 67%
